# Counter-ions that a name gives are not always drawn.
# Target: T1, human Glucose-dependent Insulinotropic Polypeptide Receptor (hGIPR) (Homo sapiens, UniProt P48546)
# T1 sequence (P48546 22-466): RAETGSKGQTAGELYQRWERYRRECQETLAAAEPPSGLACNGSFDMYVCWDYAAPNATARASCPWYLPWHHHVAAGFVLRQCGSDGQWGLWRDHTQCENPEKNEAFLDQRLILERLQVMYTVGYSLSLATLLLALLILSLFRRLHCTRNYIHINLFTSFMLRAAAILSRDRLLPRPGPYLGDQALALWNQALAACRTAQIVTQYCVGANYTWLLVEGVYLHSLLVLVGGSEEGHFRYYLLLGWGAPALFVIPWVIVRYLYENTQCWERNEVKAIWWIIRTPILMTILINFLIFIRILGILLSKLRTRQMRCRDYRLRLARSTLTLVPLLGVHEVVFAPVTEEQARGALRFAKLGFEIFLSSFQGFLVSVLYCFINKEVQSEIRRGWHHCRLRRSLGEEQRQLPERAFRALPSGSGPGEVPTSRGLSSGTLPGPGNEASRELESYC
# Experiment: Functional in vitro GIPR antagonist potency assay (cAMP HTRF, CHO-K1 cells stably expressing hGIPR, hGIP stimulation at about EC80)
# Format: cell-based
# Conditions: geometric mean, hGIP at estimated EC80, examples marked ^2: overall geometric mean of multiple forms (including salts) tested
# Method: Example AA. Functional In Vitro GIPR Antagonist Potency Assay
# The functional in vitro antagonist potency for test compounds was determined by monitoring intracellular cyclic adenosine monophosphate (cAMP) levels in Chinese hamster ovary (CHO)—K1 cells stably expressing the human Glucose-dependent Insulinotropic Polypeptide Receptor (hGIPR). Following agonist activation, hGIPR associates with the G-protein complex causing the Gαs subunit to exchange bound guanosine diphosphate (GDP) for guanosine triphosphate (GTP), followed by dissociation of the Gαs-GTP complex. The activated Gas subunit can couple to downstream effectors to regulate the levels of second messengers or cAMP within the cell. Thereby, determination of intracellular cAMP levels allows for pharmacological characterization. Intracellular cAMP levels are quantitated using a homogenous assay utilizing the Homogeneous Time Resolved Fluorescence (HTRF) technology from Perkin Elmer. […] The two entities compete for binding to a monoclonal anti-cAMP antibody labeled with cryptate. The specific signal is inversely proportional to the concentration of cAMP in the cells.
# Test compounds were solubilized to a concentration of 30 mM in 100% dimethyl sulfoxide (DMSO). An 11-point dilution series using 1 in 3.162-fold serial dilutions was created in 100% DMSO with a top concentration of 8 mM. The serially diluted compound was spotted with an Echo Acoustic liquid handler (Beckman Coulter) into a 384-well assay plate (Corning, Cat No. 3824) at 50 nL/well with duplicate points at each concentration, at a 200× final assay concentration (FAC). The final compound concentration range in the assay was 40 μM to […], with a final DMSO concentration of 0.5%.
# Frozen assay-ready vials (at 1×10^7 cells/vial) of CHO-K1 cells stably expressing the Gs-coupled human GIPR receptor (Eurofins, DiscoverX, Cat No. 95-0146C2) were thawed, counted, and resuspended in assay buffer consisting of Hank's Balanced Salt Solution (HBSS, Lonza Cat No. 10-527) containing 20 mM (4-(2-hydroxyethyl)-1-piperazineethanesulfonic acid (HEPES, Lonza, Cat No. 17-737E), 0.1% bovine serum albumin (BSA, Sigma, Cat No. A7979), and 200 μM 3-isobutyl-1-methylxanthine (IBMX, Sigma, Cat No. 15879) at a density of 4×10^5 cells/mL. Cells were added to assay plate (5 μL/well of 4×10^5 cells/mL stock for 2,000 cells/well final) containing 50 nL of 200× FAC test compound, and incubated at 37° C. (95% O2: 5% CO2) for 2 hours, with micro-clime lids (Labcyte, Cat No. LLS-0310). Following the 2-hour cell and compound incubation, a stimulation mix comprised of hGIPR agonist human glucose-dependent insulinotropic polypeptide (hGIP, full length, Sigma Cat No. G2269) in assay buffer/0.1% DMSO was added to the assay plate (5 μL/well) at an estimated EC80 FAC (based on previous hGIP agonist curves) and incubated for another 30 minutes with micro-clime lids at 37° C. (95% O2: 5% CO2), after which intracellular cAMP levels were quantified as per Perkin Elmer's protocol (5 μL of d2 and then 5 μL cryptate, incubated for 1 hour at room temperature). Emission spectra of samples were measured on a Pherastar plate reader (BMG Labtech Inc) using a HTRF protocol (excitation, 320 nm; emission, 665 nm/620 nm).
# (95% O2: 5% CO2), with a micro-clime lid. Following the 2-hour cell and DMSO incubation, a hGIP concentration response curve at 2× FAC (12-point curve using 1 in 3 serial dilutions, with triplicate points at each concentration, 100 nM final top concentration) in assay buffer/1% DMSO was added (5 μL/well) and incubated for a further 30 minutes with a micro-clime lid at 37° C. (95% O2: 5% CO2), after which intracellular cAMP levels were quantified and samples measured as described previously. Experiments passed quality control if the agonist concentration used for stimulation fell between the on-the-day EC50-EC90. […]
row,SMILES,IC50
1,"CC(C)c1ccc(NC(=O)N2CCC[C@@H]2C(=O)Nc2ccc(-c3ccc(C(=O)O)cc3)cn2)cc1 [Example 5, Ammonium 4-{6-[(1-{[4-(propan-2-yl)phenyl]carbamoyl}-D-prolyl)amino]pyridin-3-yl}benzoate]",9.1 nM
2,"CC(C)c1ccc(NC(=O)N2CCC[C@@H]2C(=O)Nc2ccc(-c3ccc(C(=O)O)cc3)cc2F)cc1 [Example 6, 3′-Fluoro-4′-[(1-{[4-(propan-2-yl)phenyl]carbamoyl}-D-prolyl)amino][1,1′-biphenyl]-4-carboxylic acid]",6.5 nM
3,"O=C(O)c1ccc(-c2ccc(NC(=O)[C@H]3CCCN3C(=O)Nc3ccc(C4CC4)cc3)cc2)cc1 [Example 7, Ammonium 4′-({1-[(4-cyclopropylphenyl)carbamoyl]-D-prolyl}amino)[1,1′-biphenyl]-4-carboxylate]",8.1 nM
4,"Cc1cc(NC(=O)[C@H]2CCCN2C(=O)Nc2ccc(C(C)C)cc2)cc2ccc(C(=O)O)nc12 [Example 11, 8-methyl-6-[(1-{[4-(propan-2-yl)phenyl]carbamoyl}-D-prolyl)amino]quinoline-2-carboxylic acid, trifluoroacetate salt]",180 nM
5,"O=C(O)c1ccc(-c2ccc(NC(=O)[C@H]3CCCN3C(=O)Nc3ccc(Cl)cc3)cc2)cc1 [Example 13, ammonium 4′-({1-[(4-chlorophenyl)carbamoyl]-D-prolyl}amino)[1,1′-biphenyl]-4-carboxylate]",12 nM
6,"CC(C)c1ccc(NC(=O)N2CCC[C@@H]2C(=O)Nc2ccc(-c3ccnc(C(=O)O)c3)cc2)cc1 [Example 14, ammonium 4-{4-[(1-{[4-(propan-2-yl)phenyl]carbamoyl}-D-prolyl)amino]phenyl}pyridine-2-carboxylate]",88 nM
7,"O=C(O)c1ccc(-c2ccc(NC(=O)[C@H]3CCCN3C(=O)Nc3ccc(C(F)(F)F)cc3)cc2)cc1 [Example 16, Ammonium 4′-[(1-{[4-(trifluoromethyl)phenyl]carbamoyl}-D-prolyl)amino][1,1′-biphenyl]-4-carboxylate]",3.7 nM
8,"Cc1cc(NC(=O)N2CCC[C@@H]2C(=O)Nc2ccc(-c3ccc(C(=O)O)nc3)cc2)ccc1C(C)C [Example 19, 5-{4-[(1-{[3-Methyl-4-(propan-2-yl)phenyl]carbamoyl}-D-prolyl)amino]phenyl}pyridine-2-carboxylic acid]",11 nM
9,"Cc1nc(C(=O)O)ccc1-c1ccc(NC(=O)[C@H]2CCCN2C(=O)Nc2ccc(C(C)C)cc2)cc1 [Example 20, 6-Methyl-5-{4-[(1-{[4-(propan-2-yl)phenyl]carbamoyl}-D-prolyl)amino]phenyl}pyridine-2-carboxylic acid]",12 nM
10,"O=C(O)c1ccc(-c2ccc(NC(=O)[C@H]3CCCN3C(=O)Nc3ccc(C(F)(F)F)cc3)cn2)cc1 [Example 22, 4-{5-[(1-{[4-(Trifluoromethyl)phenyl]carbamoyl}-D-prolyl)amino]pyridin-2-yl}benzoic acid]",62 nM
11,"O=C(O)c1ccc(-c2cnc(NC(=O)[C@H]3CCCN3C(=O)Nc3ccc(C(F)(F)F)cc3)c(F)c2)cc1 [Example 24, 4-{5-Fluoro-6-[(1-{[4-(trifluoromethyl)phenyl]carbamoyl}-D-prolyl)amino]pyridin-3-yl}benzoic acid]",110 nM
12,"CC(C)c1ccc(NC(=O)N2CCC[C@@H]2C(=O)Nc2ncc(-c3ccc(C(=O)O)cc3)cc2F)cc1 [Example 25, 4-{5-Fluoro-6-[(1-{[4-(propan-2-yl)phenyl]carbamoyl}-D-prolyl)amino]pyridin-3-yl}benzoic acid]",86 nM
13,"Cc1nc(C(=O)O)ccc1-c1ccc(NC(=O)[C@H]2CCCN2C(=O)Nc2ccc(C(C)C)c(F)c2)cc1 [Example 27, 5-{4-[(1-{[3-Fluoro-4-(propan-2-yl)phenyl]carbamoyl}-D-prolyl)amino]phenyl}-6-methylpyridine-2-carboxylic acid]",4.8 nM

# The remaining compounds from weak to strong by IC50, led by results:
row,IC50,SMILES
1,150 nM,"CC(C)c1ccc(NC(=O)N2CCC[C@@H]2C(=O)Nc2ccc(-c3ncc(C(=O)O)cn3)cc2)cc1 [Example 8, ammonium 2-{4-[(1-{[4-(propan-2-yl)phenyl]carbamoyl}-D-prolyl)amino]phenyl}pyrimidine-5-carboxylate]"
2,130 nM,"CC(C)c1ccc(NC(=O)N2CCC[C@@H]2C(=O)Nc2ccc(-c3cccc(C(=O)O)n3)cc2)cc1 [Example 9, ammonium 6-{4-[(1-{[4-(propan-2-yl)phenyl]carbamoyl}-D-prolyl)amino]phenyl}pyridine-2-carboxylate]"
3,67 nM,"CC(C)c1ccc(NC(=O)N2CCC[C@@H]2C(=O)Nc2ccc3cc(C(=O)O)ccc3c2)cc1 [Example 10, 6-[(1-{[4-(propan-2-yl)phenyl]carbamoyl}-D-prolyl)amino]naphthalene-2-carboxylic acid]"
4,15 nM,"CC(C)c1ccc(NC(=O)N2CCC[C@@H]2C(=O)Nc2ccc(-c3ccc(C(=O)O)cc3)nc2)cc1 [Example 18, 4-{5-[(1-{[4-(Propan-2-yl)phenyl]carbamoyl}-D-prolyl)amino]pyridin-2-yl}benzoic acid]"
5,14 nM,"Cc1cc(NC(=O)N2CCC[C@@H]2C(=O)Nc2ccc(-c3ccc(C(=O)O)nc3)cc2)ccc1C(F)(F)F [Example 17, 5-{4-[(1-{[3-Methyl-4-(trifluoromethyl)phenyl]carbamoyl}-D-prolyl)amino]phenyl}pyridine-2-carboxylic acid]"
6,11 nM,"COc1cc(-c2ccc(NC(=O)[C@H]3CCCN3C(=O)Nc3ccc(C(C)C)cc3)cc2)ccc1C(=O)O [Example 21, 3-Methoxy-4′-[(1-{[4-(propan-2-yl)phenyl]carbamoyl}-D-prolyl)amino][1,1′-biphenyl]-4-carboxylic acid]"
7,10 nM,"C=C(C)c1ccc(NC(=O)N2CCC[C@@H]2C(=O)Nc2ccc(-c3ccc(C(=O)O)cc3)cc2)cc1 [Example 12, 4′-[(1-{[4-(prop-1-en-2-yl)phenyl]carbamoyl}-D-prolyl)amino][1,1′-biphenyl]-4-carboxylic acid]"
8,8.1 nM,"CC(C)c1ccc(NC(=O)N2CCC[C@@H]2C(=O)Nc2c(F)cc(-c3ccc(C(=O)O)cc3)cc2F)cc1 [Example 15, 3′,5′-difluoro-4′-[(1-{[4-(propan-2-yl)phenyl]carbamoyl}-D-prolyl)amino][1,1′-biphenyl]-4-carboxylic acid]"
9,2.7 nM,"O=C(O)c1ccc(-c2ccc(NC(=O)[C@H]3CCCN3C(=O)Nc3ccc(C4CCC4)cc3)cc2)cc1 [Example 23, 4′-({1-[(4-Cyclobutylphenyl)carbamoyl]-D-prolyl}amino)[1,1′-biphenyl]-4-carboxylic acid]"
10,2.1 nM,"O=C(O)c1ccc(-c2ccc(NC(=O)[C@H]3CCCN3C(=O)Nc3ccc(C4CC4)c(C(F)(F)F)c3)cc2)cc1 [Example 26, 4′-[(1-{[4-Cyclopropyl-3-(trifluoromethyl)phenyl]carbamoyl}-D-prolyl)amino][1,1′-biphenyl]-4-carboxylic acid]"

# Source: patent publication US20240366598A1, “GLUCOSE-DEPENDENT INSULINOTROPIC POLYPEPTIDE RECEPTOR ANTAGONISTS AND USES THEREOF” (Pfizer Inc., priority 2023, published 2024)
